This is an account of results in patent US8975398B2, “NAMPT inhibitors” (AbbVie Inc., priority 2012, dated 2015).

pIC50: −log10 of the molar value.

Test [1] concerns the target NAMPT (human, recombinant, C-terminally His-tagged) (Homo sapiens, UniProt P43490). Put plainly: Time-Resolved Fluorescence Resonance Energy Transfer (TR-FRET) Binding Assay of NAMPT. The following applies: 6.8 nM NAMPT, 200 nM probe, equilibrated 3 hours, absence of substrates. In short, it runs like this: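 Probe displacement measured by TR-FRET (Ex 337 nm; 520/495 nm ratio) after 3 h room-temperature equilibration of compound with 6.8 nM His-tagged human NAMPT, 1 nM Tb-anti-His antibody and 200 nM Oregon Green 488 nicotinamide-site probe, pH 7.5 HEPES buffer, 2% DMSO. Control-normalized data fit four-parameter logistic for IC50.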
(In TR-FRET formats the signal depends on donor and acceptor labels being close together.)

In test [2] the target is NAMPT (Homo sapiens, UniProt P43490). Put plainly: Time-Resolved Fluorescence Resonance Energy Transfer (TR-FRET) Binding Assay of NAMPT with PRPP. The conditions noted are these: 2 nM NAMPT, 2 nM probe, 200 uM PRPP and 2.5 mM ATP, equilibrated 16 hours. In short, it runs like this:
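Binding measured by TR-FRET after a 16-hour equilibration meant to permit enzymatic compound modification. Substrates present at 200 uM PRPP and 2.5 mM ATP, with 2 nM enzyme, 2 nM probe, 1 nM Tb-anti-His antibody and 2% DMSO final.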

NAMPT (human, recombinant, C-terminally His-tagged), sequence (P43490 whole entry): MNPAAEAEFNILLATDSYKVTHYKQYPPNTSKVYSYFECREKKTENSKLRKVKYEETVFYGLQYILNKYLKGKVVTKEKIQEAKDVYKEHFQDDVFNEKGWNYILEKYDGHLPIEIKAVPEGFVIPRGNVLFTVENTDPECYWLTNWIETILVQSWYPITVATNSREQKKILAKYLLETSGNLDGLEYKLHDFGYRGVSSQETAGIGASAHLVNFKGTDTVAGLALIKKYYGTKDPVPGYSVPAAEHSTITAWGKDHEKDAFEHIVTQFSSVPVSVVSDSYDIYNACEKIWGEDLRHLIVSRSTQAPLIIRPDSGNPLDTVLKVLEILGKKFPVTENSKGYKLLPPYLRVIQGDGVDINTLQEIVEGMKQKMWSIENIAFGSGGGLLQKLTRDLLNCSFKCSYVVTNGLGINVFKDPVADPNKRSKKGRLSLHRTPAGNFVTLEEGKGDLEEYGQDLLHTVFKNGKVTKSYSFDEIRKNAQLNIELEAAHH
NAMPT, sequence (P43490 whole entry): as above

In the case of `CC(C)CCC(=O)N1CCC(c2ccc(NC(=O)C3CN(c4cccnc4)C3)cc2)CC1` [Example 116, N-{4-[1-(4-methylpentanoyl)piperidin-4-yl]phenyl}-1-(pyridin-3-yl)azetidine-3-carboxamide], the negative-log IC50 (pIC50) (as a rule, the negative decadic logarithm of the IC50, by convention in mol/L) was 7.58 in test [1] and 9.69 in test [2].
With `CC1(C(=O)N2CCC(c3ccc(NC(=O)C4CN(c5cccnc5)C4)cc3)CC2)CCCCC1` [Example 117, N-(4-{1-[(1-methylcyclohexyl)carbonyl]piperidin-4-yl}phenyl)-1-(pyridin-3-yl)azetidine-3-carboxamide], the results for the pIC50 in test [1] and in test [2] were 8.20 and 9.45, respectively.
With `CC(=O)N1CCC(c2ccc(NC(=O)C3CN(c4cccnc4)C3)cc2)CC1` [Example 118, N-[4-(1-acetylpiperidin-4-yl)phenyl]-1-(pyridin-3-yl)azetidine-3-carboxamide], the results for the pIC50 in test [1] and in test [2] were 7.85 and 9.77, respectively.
Consider `O=C(Nc1ccc(C2CCN(C(=O)CC3CCCCC3)CC2)cc1)C1CN(c2cccnc2)C1` [Example 119, N-{4-[1-(cyclohexylacetyl)piperidin-4-yl]phenyl}-1-(pyridin-3-yl)azetidine-3-carboxamide], for which the pIC50 is 8.21 in test [1] and 9.77 in test [2].
With `CC(=O)N[C@@H](CC(C)C)C(=O)N1CCC(c2ccc(NC(=O)C3CN(c4cccnc4)C3)cc2)CC1` [Example 120, N-{4-[1-(N-acetyl-L-leucyl)piperidin-4-yl]phenyl}-1-(pyridin-3-yl)azetidine-3-carboxamide], the pIC50 in test [1] is 7.94; in test [2], 9.53.
For the compound `CCC(=O)N1CCC(c2ccc(NC(=O)C3CN(c4cccnc4)C3)cc2)CC1` [Example 121, N-[4-(1-propanoylpiperidin-4-yl)phenyl]-1-(pyridin-3-yl)azetidine-3-carboxamide], the negative logarithm of the IC50 (pIC50) in test [1] was 8.00; in test [2], 9.77.
For `O=C(Nc1ccc(C2CCN(C(=O)CC(F)(F)F)CC2)cc1)C1CN(c2cccnc2)C1` [Example 122, 1-(pyridin-3-yl)-N-{4-[1-(3,3,3-trifluoropropanoyl)piperidin-4-yl]phenyl}azetidine-3-carboxamide], the pIC50 in test [1] is 8.10; in test [2] it was 9.77.
For the compound `COCCOCC(=O)N1CCC(c2ccc(NC(=O)C3CN(c4cccnc4)C3)cc2)CC1` [Example 123, N-(4-{1-[(2-methoxyethoxy)acetyl]piperidin-4-yl}phenyl)-1-(pyridin-3-yl)azetidine-3-carboxamide], the results for the pIC50 in test [1] and in test [2] were 7.18 and 9.55, respectively.
`O=C(Nc1ccc(C2CCN(C(=O)CCN3CCOCC3)CC2)cc1)C1CN(c2cccnc2)C1` [Example 124, N-(4-{1-[3-(morpholin-4-yl)propanoyl]piperidin-4-yl}phenyl)-1-(pyridin-3-yl)azetidine-3-carboxamide]: the negative logarithm of the IC50 (pIC50) is 6.91 in test [1] and 9.56 in test [2].
Turning to `CC(C)(C)C(=O)N1CCC(c2ccc(NC(=O)C3CN(c4cccnc4)C3)cc2)CC1` [Example 125, N-{4-[1-(2,2-dimethylpropanoyl)piperidin-4-yl]phenyl}-1-(pyridin-3-yl)azetidine-3-carboxamide], the pIC50 was 7.81 in test [1] and 9.29 in test [2].
In the case of `Cc1ccc(C(=O)N2CCC(c3ccc(NC(=O)C4CN(c5cccnc5)C4)cc3)CC2)s1` [Example 126, N-(4-{1-[(5-methylthiophen-2-yl)carbonyl]piperidin-4-yl}phenyl)-1-(pyridin-3-yl)azetidine-3-carboxamide], the negative-log IC50 (pIC50) in test [1] was 7.83; in test [2], 9.44.
In the case of `O=C(Nc1ccc(C2CCN(C(=O)c3cccs3)CC2)cc1)C1CN(c2cccnc2)C1` [Example 127, 1-(pyridin-3-yl)-N-{4-[1-(thiophen-2-ylcarbonyl)piperidin-4-yl]phenyl}azetidine-3-carboxamide], the negative logarithm of the IC50 (pIC50) in test [1] is 8.44; in test [2], 9.41.
Consider `Cn1cccc1C(=O)N1CCC(c2ccc(NC(=O)C3CN(c4cccnc4)C3)cc2)CC1` [Example 128, N-(4-{1-[(1-methyl-1H-pyrrol-2-yl)carbonyl]piperidin-4-yl}phenyl)-1-(pyridin-3-yl)azetidine-3-carboxamide], for which the negative-log IC50 (pIC50) in test [1] was 8.08; in test [2] it was 9.21.
In the same order, the values of `O=C(Nc1ccc(C2CCN(C(=O)c3ccco3)CC2)cc1)C1CN(c2cccnc2)C1` [Example 129, N-{4-[1-(furan-2-ylcarbonyl)piperidin-4-yl]phenyl}-1-(pyridin-3-yl)azetidine-3-carboxamide] are 8.35 and 9.44.
Consider `O=C(Nc1ccc(C2CCN(C(=O)CCN3CCCCC3)CC2)cc1)C1CN(c2cccnc2)C1` [Example 130, N-(4-{1-[3-(piperidin-1-yl)propanoyl]piperidin-4-yl}phenyl)-1-(pyridin-3-yl)azetidine-3-carboxamide], for which the pIC50 in test [1] was 6.54; in test [2] it was 9.27.
Regarding `CCOCC(=O)N1CCC(c2ccc(NC(=O)C3CN(c4cccnc4)C3)cc2)CC1` [Example 131, N-{4-[1-(ethoxyacetyl)piperidin-4-yl]phenyl}-1-(pyridin-3-yl)azetidine-3-carboxamide], the negative-log IC50 (pIC50) was 7.16 in test [1] and 9.32 in test [2].
`CC(C)(C)CC(=O)N1CCC(c2ccc(NC(=O)C3CN(c4cccnc4)C3)cc2)CC1` [Example 132, N-{4-[1-(3,3-dimethylbutanoyl)piperidin-4-yl]phenyl}-1-(pyridin-3-yl)azetidine-3-carboxamide]: the pIC50 is 8.07 in test [1] and 9.36 in test [2].
In the case of `CCC(C)(C)C(=O)N1CCC(c2ccc(NC(=O)C3CN(c4cccnc4)C3)cc2)CC1` [Example 133, N-{4-[1-(2,2-dimethylbutanoyl)piperidin-4-yl]phenyl}-1-(pyridin-3-yl)azetidine-3-carboxamide], the pIC50 in test [1] was 7.92; in test [2] it was 9.20.
Consider `CCCC(=O)N1CCC(c2ccc(NC(=O)C3CN(c4cccnc4)C3)cc2)CC1` [Example 134, N-[4-(1-butanoylpiperidin-4-yl)phenyl]-1-(pyridin-3-yl)azetidine-3-carboxamide], for which the pIC50 in test [1] was 7.77; in test [2], 9.44.
In the case of `COCC(=O)N1CCC(c2ccc(NC(=O)C3CN(c4cccnc4)C3)cc2)CC1` [Example 135, N-{4-[1-(methoxyacetyl)piperidin-4-yl]phenyl}-1-(pyridin-3-yl)azetidine-3-carboxamide], the pIC50 in test [1] is 7.47; in test [2], 9.53.
In the same order, the values of `O=C(Nc1ccc(C2CCN(C(=O)C3CCCCC3)CC2)cc1)C1CN(c2cccnc2)C1` [Example 136, N-{4-[1-(cyclohexylcarbonyl)piperidin-4-yl]phenyl}-1-(pyridin-3-yl)azetidine-3-carboxamide] are 7.69 and 9.20.
In the same order, the values of `CC(C)CC(=O)N1CCC(c2ccc(NC(=O)C3CN(c4cccnc4)C3)cc2)CC1` [Example 137, N-{4-[1-(3-methylbutanoyl)piperidin-4-yl]phenyl}-1-(pyridin-3-yl)azetidine-3-carboxamide] are 7.75 and 9.34.
On to `O=C(Nc1ccc(C2CCN(C(=O)C3CCCC3)CC2)cc1)C1CN(c2cccnc2)C1` [Example 138, N-{4-[1-(cyclopentylcarbonyl)piperidin-4-yl]phenyl}-1-(pyridin-3-yl)azetidine-3-carboxamide], for which the results for the negative-log IC50 (pIC50) in test [1] and in test [2] were 7.66 and 9.35, respectively.
